In patent publication US10092537B2, “Use for PAI-1 inhibitor” (RENASCIENCE CO., LTD., priority 2013, dated 2018):

Experiments:
hematopoietic stem cells [1] = assay: Frequency and absolute number of hematopoietic stem cells after bone-marrow transplantation (Experimental Example 8 (1)); type: in vivo, mice; settings: 1 and 3 weeks after bone-marrow transplantation; compared with control group
Method: In accordance with the procedure of Experimental Example 7 (1), bone marrow was transplanted, and tPA or compound a was administered in the same manner as in Experimental Example 7. Physiological saline was administered to a control group. 1 and 3 weeks after bone-marrow transplantation, 12 mice of each group were measured for the number of bone-marrow mononucleic cells (BM MNC), the frequency and absolute number of Lin-SLAM cells, and the frequency and absolute number of LSK-CD34 negative cells.

hematopoietic stem cells [2] = assay: Cell cycle (Ki-67, BrdU) and apoptosis (Annexin V) of bone-marrow cells 1 week after bone-marrow transplantation (Experimental Example 9); type: in vivo, mice
Method: In accordance with Experimental Example 7 (1), bone-marrow transplantation was conducted, and after the transplantation, physiological saline (control group), tPA (tPA-administered group), or compound a (compound a-administered group) was administered.
1 week after bone-marrow transplantation, the bone marrow was collected, and Ki-67 protein, which is a cell division marker, was immunostained with anti-Ki-67-FITC antibody (BD Bioscience) to analyze the cells in the cell-division cycle by FACSCalibur.
Subsequently, the number of Ki-67 positive cells in the cells of LSK fraction was examined to confirm that the proliferation of hematopoietic stem cells is promoted by compound a.
In addition, to more accurately detect the cells that moved to the S phase, 5-bromo-2-deoxyuridine (BrdU)-FITC (BD Pharmingen) was administered to the control group, tPA group, and compound a-administered group 1 week after bone-marrow transplantation, 3 hours before the collection of bone marrow. 6 mice were used for each group.
Because BrdU is a thymine derivative, BrdU, substituting for thymine, is incorporated into genomic DNA or the like during DNA replication. BrdU more specifically reflects the S phase than Ki-67 protein.
1 week after bone-marrow transplantation, bone marrow was collected from the control group, tPA group, and compound a-administered group (6 mice for each group), and Annexin V, which appears specifically in apoptosis, was detected with anti-Annexin V antibody immunostaining.

hematopoietic stem cells [3] = assay: Fibrinolytic pathway activation and bone-marrow regeneration after lethal radiation (9Gy) and bone-marrow transplantation, compound a versus recombinant tPA (Experimental Example 7)
Method: Within 4 hours, 1.0×10^6 bone-marrow mononucleic cells (BM MNC) were intravenously inoculated into retro-orbital plexus. Concurrently with transplantation, compound a (dosage 100 mg/kg) or recombinant tPA (dosage 100 mg/kg, Eisai Co., Ltd) were administered as a test compound via oral gavage, and the test compound was orally administered for 5 consecutive days (administered group). As a control test, instead of the test compound, physiological saline (vehicle) used for dissolving compound a was orally administered in the same manner (control group).
Blood was collected 2 and 7 days after bone-marrow transplantation, and the active PAI-1 level (ng/mL), active tissue-type plasminogen activator (active tPA), plasmin level (ng/mL), cKit ligand, and total MMP-9 (Matrix metalloprotein-9) in the plasma were measured.

CML cells = assay: Chronic myelogenous leukemia model mice, imatinib with compound d or compound e (Experimental Example 17); type: in vivo; settings: imatinib 150 mg/kg/day + compound d or compound e 10 mg/kg/day via gavage, day 8 to day 14
Method: Group 1: placebo group (physiological saline was administered via gavage)
Group 2: imatinib group (imatinib [150 mg/kg/day] was administered via gavage)
Group 3: imatinib+compound d group (imatinib [150 mg/kg/day] and compound d [10 mg/kg/day] were administered via gavage)
Group 4: imatinib+compound e group (imatinib [150 mg/kg/day] and compound e [10 mg/kg/day] were administered via gavage)
8 days after (day 8) the day (day 0) on which CML cells were intravenously inoculated, administration of test drugs to the groups was started. The placebo group and the imatinib group were administered the respective test drugs once a day from day 8 to day 14 (7 doses in total). The imatinib+compound d group and imatinib+compound e group were administered imatinib once a day from day 8 to day 14 (7 doses in total), and also administered compound d or e once a day from day 8 to day 14 (7 doses in total).

hematopoietic stem cells [4] = assay: Hematopoietic recovery after bone-marrow transplantation, compounds a, b, c (Experimental Example 5); type: in vivo, mice; settings: compound a 100 mg/kg oral 4 days; compounds b and c 10 mg/kg oral 6 consecutive days after bone-marrow transplantation
Method: The procedures of Experimental Examples 4 (1) and 4 (4) were repeated using compounds b and c, instead of compound a, as a test compound.
Compound a was orally administered in an amount of 100 mg/kg for 4 consecutive days after bone-marrow transplantation. Compounds b and c were orally administered in an amount of 10 mg/kg for 6 consecutive days after bone-marrow transplantation.
Bone marrow was collected 1 and 3 weeks after bone-marrow transplantation. The total number of the whole bone-marrow cells (FIG. 9E), the proportion (%) of LSK-CD34 negative cells in the whole bone marrow (FIG. 9A), the total number of LSK-CD34 negative cells in the whole bone marrow (FIG. 9B), the proportion (%) of Lin-SLAM cells in the whole bone marrow (FIG. 9C), and the total number of Lin-SLAM cells in the whole bone marrow (FIG. 9D) were measured. The results are shown in the above-stated figures.

hematopoietic stem cells [5] = assay: Bone-marrow transplanted mice, compound c, G-CSF and G-CSF neutralizing antibody (Experimental Example 13); type: in vivo; settings: G-CSF 150 μg/kg/day
Method: Bone-marrow transplanted mice were prepared in the same manner as in Experimental Example 4, and compound c, G-CSF, and G-CSF neutralizing antibody were examined for the effects. Specifically, the bone-marrow transplanted mice were divided into 5 groups as shown below (each group: n=5) and orally administered respective test drugs.
Group 1: vehicle group (physiological saline was administered via gavage) (“v group”)
Group 2: compound c group (compound c [10 mg/kg/day] was administered via gavage) (“TM group”)
Group 3: G-CSF group (G-CSF [150 μg/kg/day] was administered via gavage) (“G group”)
Group 4: vehicle+anti-G-CSF group (physiological saline+G-CSF neutralizing antibody [500 μg/kg/day] was administered via gavage) (“v+Ab group”)
Group 5: compound c+anti-G-CSF group (compound c [500 μg/kg/day]+G-CSF neutralizing antibody [500 μg/kg/day] was administered via gavage) (“TM+Ab group”)
Concurrently with bone-marrow transplantation, administration of physiological saline (vehicle) to the vehicle group via gavage was started, and the administration continued for 5 consecutive days. Concurrently with bone-marrow transplantation, administration of compound c (10 mg/kg/day) to the compound c group via gavage was started, and the administration continued for 5 consecutive days. Concurrently with bone-marrow transplantation, subcutaneous administration of G-CSF (150 μg/kg/day) to the G-CSF group was started, and the administration continued for 5 consecutive days. Concurrently with bone-marrow transplantation, gavage administration of physiological saline and subcutaneous administration of G-CSF neutralizing antibody (R&D) (500 μg/kg/day) to the vehicle+anti-G-CSF group were started, and the administration continued for 5 consecutive days. Concurrently with bone-marrow transplantation, gavage administration of compound c (10 mg/kg/day) and intraperitoneal administration of G-CSF neutralizing antibody (R&D) (500 μg/kg/day) to the compound c+anti-G-CSF group were started, and the administration continued for 5 consecutive days.
1 week after bone-marrow transplantation, plasma and bone-marrow fluids were collected from mice of each group (v group, TM group, G group, v+Ab group, and TM+Ab group), and the G-CSF concentration (pg/ml) was measured by ELISA. The following were determined in accordance with an ordinary procedure: (B) G-CSF concentration (pg/ml) in bone-marrow fluids, (C) total number of mononucleic cells (×10E7 cell) in the bone marrow, (D) proportion (%) of LSK CD34 negative cells in the bone marrow, (E) total number of LSK CD34 negative cells in the bone marrow, (F) proportion (%) of Lin-SLAM cells in the bone marrow, and (G) total number of Lin-SLAM cells in the bone marrow.

[6] = tPA group compared with control group, compound a group compared with tPA group

Molecule: tPA: recombinant tPA (tissue-type plasminogen activator), Eisai Co., Ltd
- number of bone-marrow mononucleic cells (hematopoietic stem cells [1]): slightly larger
- proportion of cells that were induced apoptosis (Annexin V) (hematopoietic stem cells [2]; compared with control group): decrease
- cells in the S phase (BrdU incorporated into LSK cells) (hematopoietic stem cells [2]; control group 18.1%): 18.8%
- Ki-67 positive, cells classified into the LSK fraction taken as 100% (hematopoietic stem cells [2]; control group 43.3%): 50.7%
- cell count of cells at the S-G2-M phase (Ki-67) in bone-marrow mononucleic cells (hematopoietic stem cells [2]; control group 44.2%): 50.8%
- cell count of cells at the G0/G1 phase (Ki-67) in bone-marrow mononucleic cells (hematopoietic stem cells [2]; control group 55.8%): 49.2%
- level of active tPA in plasma (hematopoietic stem cells [3]; 2 days after bone-marrow transplantation, among control, tPA and compound a groups): highest level
- expression of active PAI-1 in the plasma (hematopoietic stem cells [3]; compound a or recombinant tPA 100 mg/kg, 5 consecutive days, 2 and 7 days after bone-marrow transplantation): lower than that of the control group
- survival rate on day 28 from bone-marrow transplantation (hematopoietic stem cells [3]; lethal radiation 9Gy, 100 mg/kg, 5 consecutive days, n=15, control group 20%): 50%
- platelet count in the peripheral blood (hematopoietic stem cells [3]; [6]): significantly increased
- white blood cell count in the peripheral blood (hematopoietic stem cells [3]; [6]): significantly increased

Molecule: O=C(COCC(=O)Nc1ccc(Cl)cc1C(=O)O)Nc1cccc(-c2ccco2)c1 [Example 61 (compound group 3), 5-chloro-2-{[(2-{[3-(furan-2-yl)phenyl]amino}-2-oxoethoxy)acetyl]amino}benzoic acid]
- survival (CML cells): some mice survived even after day 40

Molecule: O=C(Nc1cccc(-c2ccoc2)c1)C(=O)Nc1ccc(Cl)cc1C(=O)O [Example 45 (compound group 3), 5-chloro-2-{[{[3-(furan-3-yl)phenyl]amino}(oxo)acetyl]amino}benzoic acid]
- frequency of hematopoietic stem cells (hematopoietic stem cells [4]): increase
- self-renewal capacity of hematopoietic stem cells (hematopoietic stem cells [4]): enhance

B1: G-CSF: granulocyte colony stimulating factor, administered 150 μg/kg/day (protein, UniProt P09919 31-207, looked up)
Granulocyte …: TPLGPASSLPQSFLLKCLEQVRKIQGDGAALQEKLVSECATYKLCHPEELVLLGHSLGIPWAPLSSCPSQALQLAGCLSQLHSGLFLYQGLLQALEGISPELGPTLDTLQLDVADFATTIWQQMEELGMAPALQPTQGAMPAFASAFQRRAGGVLVASHLQSFLEVSYRVLRHLAQP
- proportion and number of Lin-SLAM cells (hematopoietic stem cells [5]; single agents: TM (compound c) 10 mg/kg/day, G-CSF neutralizing antibody 500 μg/kg/day with vehicle, versus vehicle group): increased
- G-CSF concentration in the plasma and bone-marrow fluids (hematopoietic stem cells [5]; single agents: compound c 10 mg/kg/day gavage, G-CSF neutralizing antibody 500 μg/kg/day with vehicle, 1 week after transplantation, versus vehicle): significant increases
- proportion and number of LSK CD34 negative cells (hematopoietic stem cells [5]; single agents: compound c 10 mg/kg/day, G-CSF neutralizing antibody 500 μg/kg/day with vehicle, versus vehicle group): increased
- number of BM MNC (hematopoietic stem cells [5]; single agents: compound c 10 mg/kg/day, versus vehicle group): more increased
